Results on one substance are retold here after patent US8048840B2, “Ether compound” (Kao Corporation, priority 2007, dated 2011).

The series in a line: Emulsification of a mixture of water and oil. The conditions noted are these: with addition of the compound. Type of series: physicochemical. An excerpt: Therefore, it is understood that the novel ether compound of the present invention has good water-solubility. It was confirmed that a mixture of water and oil was emulsified with addition of the compound a1-1.

Turning to “dendrimer type tetraglycidyl polylauryl ether [a1-1]”, the “emulsification of a mixture of water and oil” value is on record as “emulsified”.
